Results taken from the supplement of paper PMC10307832.

What was measured:
Assay in all cases: relative viability (nuclei count vs DMSO), 5 days (fraction); higher = more cells survive
[1] = compound: C1=CC=C(C(=C1)C2=CC=C(C=C2)C3=CSC4=C3C(=C(C(=O)N4)C#N)O)O + Cc1cc(Nc2cc(N3CCN(C)CC3)nc(Sc3ccc(NC(=O)C4CC4)cc3)n2)n[nH]1 [Tozasertib] (partner 0.1 µM)
How it was run: (§1)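 Lung cancer cell lines in 1536-well plates were dosed by pin tool the day after seeding, either with one drug alone or with a fixed anchor-drug dose plus five library-drug doses (not always all listed) in √10 steps. After 5 days, cells were fixed and their nuclei stained in one step (final 0.05% Triton X-100, 1% formaldehyde, 1 ug/ml Hoechst), then counted on 4× images. Relative viability is the nuclei count in treated wells divided by that in vehicle wells. Values are medians of duplicate plates.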

[2] = compound: C1=CC=C(C(=C1)C2=CC=C(C=C2)C3=CSC4=C3C(=C(C(=O)N4)C#N)O)O + O=C(c1cc(Cc2n[nH]c(=O)c3ccccc23)ccc1F)N1CCN(C(=O)C2CC2)CC1 [Olaparib] (partner 8 µM)
How it was run: as §1

TGX 221 + Linsitinib = compound: CC1=CN2C(=O)C=C(N=C2C(=C1)C(C)NC3=CC=CC=C3)N4CCOCC4 [TGX 221] + C[C@]1(O)C[C@@H](c2nc(-c3ccc4ccc(-c5ccccc5)nc4c3)c3c(N)nccn32)C1 [Linsitinib] (partner 1 µM)
How it was run: as §1

TGX 221 + Phenformin = compound: CC1=CN2C(=O)C=C(N=C2C(=C1)C(C)NC3=CC=CC=C3)N4CCOCC4 [TGX 221] + N=C(N)NC(=N)NCCc1ccccc1 [Phenformin] (partner 250 µM)
How it was run: as §1

Row | Cell Line | relative viability ([1]; first compound 0.08 µM) | relative viability ([1]; first compound 0.253 µM) | relative viability ([1]; first compound 0.8 µM) | relative viability ([1]; first compound 2.53 µM) | relative viability ([1]; first compound 8 µM) | relative viability ([2]; first compound 0.08 µM) | relative viability ([2]; first compound 0.253 µM) | relative viability ([2]; first compound 0.8 µM) | relative viability ([2]; first compound 2.53 µM) | relative viability ([2]; first compound 8 µM) | relative viability (TGX 221 + Linsitinib; first compound 0.08 µM) | relative viability (TGX 221 + Linsitinib; first compound 0.253 µM) | relative viability (TGX 221 + Linsitinib; first compound 0.8 µM) | relative viability (TGX 221 + Linsitinib; first compound 2.53 µM) | relative viability (TGX 221 + Linsitinib; first compound 8 µM) | relative viability (TGX 221 + Phenformin; first compound 0.08 µM) | relative viability (TGX 221 + Phenformin; first compound 0.253 µM) | relative viability (TGX 221 + Phenformin; first compound 0.8 µM) | relative viability (TGX 221 + Phenformin; first compound 2.53 µM) | relative viability (TGX 221 + Phenformin; first compound 8 µM)
1 | NCI-H661 | 0.359 | 0.386 | 0.357 | 0.356 | 0.369 | 0.64 | 0.799 | 0.724 | 0.843 | 0.708 | 0.486 | 0.472 | 0.363 | 0.457 | 0.362 | 0.308 | 0.279 | 0.288 | 0.288 | 0.287
2 | NCI-H727 | 0.537 | 0.604 | 0.762 | 0.702 | 0.53 | 0.829 | 0.795 | 0.704 | 0.756 | 0.825 | 0.406 | 0.29 | 0.264 | 0.269 | 0.403 | 0.635 | 0.621 | 0.537 | 0.486 | 0.51
3 | NCI-H838 | 0.264 | 0.271 | 0.285 | 0.309 | 0.268 | 0.522 | 0.963 | 0.811 | 0.784 | 0.773 | 0.917 | 0.819 | 0.841 | 0.836 | 0.618 | 0.607 | 0.534 | 0.496 | 0.471 | 0.428
4 | NCI-H1355 | 0.478 | 0.516 | 0.547 | 0.518 | 0.476 | 0.734 | 0.956 | 0.745 | 0.775 | 0.553 | 0.743 | 0.666 | 0.621 | 0.453 | 0.546 | 0.439 | 0.465 | 0.439 | 0.419 | 0.433
5 | NCI-H1395 | 0.666 | 0.843 | 0.804 | 0.716 | 0.772 |  | 0.469 | 0.479 | 0.458 | 0.446 | 1 | 0.865 | 1.04 | 0.598 | 0.665 | 0.398 | 0.435 | 0.401 | 0.436 | 0.409
6 | NCI-H1437 | 0.367 | 0.409 | 0.44 | 0.438 | 0.382 | 0.616 | 0.74 | 0.668 | 0.641 | 0.606 | 0.973 | 0.958 | 1.04 | 0.936 | 0.629 | 0.315 | 0.302 | 0.252 | 0.269 | 0.335
7 | NCI-H1651 | 0.819 | 0.714 | 0.792 | 0.716 | 0.607 | 0.185 | 0.182 | 0.197 | 0.186 | 0.16 | 0.851 | 0.67 | 0.723 | 0.726 | 0.533 | 0.283 | 0.265 | 0.437 | 0.316 | 0.286
8 | NCI-H1666 | 0.556 | 0.658 | 0.577 | 0.598 | 0.553 | 0.731 | 0.715 | 0.767 | 0.737 | 0.747 | 0.635 | 0.597 | 0.676 | 0.59 | 0.526 | 0.556 | 0.52 | 0.598 | 0.561 | 0.529
9 | NCI-H1734 | 0.266 | 0.238 | 0.279 | 0.288 | 0.216 | 0.601 | 0.687 | 0.678 | 0.601 | 0.529 | 0.801 | 0.747 | 0.802 | 0.647 | 0.616 | 0.379 | 0.362 | 0.395 | 0.413 | 0.406
10 | NCI-H1755 | 0.735 | 0.571 | 0.544 | 0.629 | 0.728 | 0.989 | 0.901 | 0.875 | 0.841 | 0.916 | 0.956 | 0.935 | 0.835 | 0.629 | 0.557 | 0.584 | 0.598 | 0.549 | 0.585 | 0.528
11 | NCI-H1793 | 0.374 | 0.331 | 0.354 | 0.337 | 0.34 | 0.929 | 0.937 | 0.867 | 0.882 | 0.78 | 0.768 | 0.616 | 0.531 | 0.467 | 0.474 | 0.367 | 0.256 | 0.311 | 0.25 | 0.309
12 | NCI-H1915 | 0.428 | 0.484 |  | 0.491 | 0.382 | 0.298 | 0.265 | 0.262 | 0.273 | 0.246 | 1.02 | 1.12 | 1.16 | 1.11 | 1.04 | 0.347 | 0.358 | 0.359 | 0.347 | 0.374
13 | NCI-H1944 | 0.269 | 0.281 | 0.269 | 0.251 | 0.228 | 0.465 | 0.433 | 0.386 | 0.464 | 0.373 | 1.07 | 1.03 | 1.04 | 0.921 | 0.669 | 0.188 | 0.196 | 0.191 | 0.186 | 0.184
14 | NCI-H1975 | 0.54 | 0.742 | 0.826 | 1.02 | 0.651 | 0.692 | 0.901 | 0.796 | 0.893 | 0.535 | 0.843 | 0.778 | 0.902 | 0.943 | 0.697 | 0.395 | 0.402 | 0.389 | 0.399 | 0.366
15 | NCI-H1993 | 0.592 | 0.524 | 0.534 | 0.592 | 0.571 | 0.988 | 1.67 | 0.894 | 1.01 | 0.882 | 0.806 | 0.774 | 0.701 | 0.641 | 0.735 | 0.427 | 0.568 | 0.54 | 0.517 | 0.54
16 | NCI-H2009 | 0.789 | 0.706 | 0.719 | 0.73 | 0.683 | 0.649 | 0.668 | 0.924 | 0.591 | 0.714 | 1.22 | 1.13 | 1.03 | 0.994 | 0.809 | 0.476 | 0.506 | 0.487 | 0.492 | 0.407
